Results as given in US10344330B2, “Glatiramer acetate response biomarker mRNA potency assay” (Mylan Inc., priority 2013, dated 2019).

Key:
Format in all cases: cell-based, mouse
[1] = tested on: mIFN-γ mRNA in primary LN cells; assay: mIFN-γ mRNA by real-time PCR in stimulated LN cells of immunized (SJL/J×BALB/C)F1 mice (Example I)
Procedure: For each of the three experiments summarized in Table 1, female (SJL/J×BALB/C) F1 hybrid (Jackson Laboratory) mice were immunized by footpad injection with either 250 μg GMA (Mylan Pharmaceuticals, Inc.) and CFA (Sigma Aldrich), or Mannitol and CFA (as a negative control). The GA solution was diluted to 5 mg/mL with Dulbecco's Phosphate-buffered saline. A dose solution was then prepared by mixing the diluted GA solution (5 mg/mL) and CFA (1:1) until well-emulsified. Each mouse received a total injection volume of 0.1 mL (250 μg GA). Animals were immunized on Day 0. Immunized animals were sacrificed via cervical dislocation on Day 10 following immunization. […] The LN were washed 3 times with −5 mL of RPMI medium, and the LN cells isolated by pressing the LN with a syringe plunger. […] The cell suspension was centrifuged at about 200×g for 10 minutes at about 4° C. and re-suspended in ice cold enriched DCCM-1 medium. The LN cells (2.5×10^6 cells/cm^2) were plated in the wells of a 48-well tissue culture plate and stimulated with GA or controls.
Expression of cytokine mRNA was quantitatively analyzed using a Real-Time PCR system (7500, Applied Biosystems).
(DCCM1 from Beit Haemek Ltd.; Cat. No. 05 010 1A). There was no MBP treatment for the 2-hour groups.
Group 1B animals were female (SJL/J×BALB/C) F1 hybrid (Jackson Laboratory) mice immunized by footpad injection with either 250 μg GA and CFA, or Mannitol and CFA (as a negative control). A dose solution was prepared by mixing a diluted GA solution (5 mg/mL) and CFA (1:1). Each mouse received a total injection volume of […] (250 μg GA). Animals were immunized on Day 0. Immunized animals were sacrificed via cervical dislocation on Day 10 following immunization. Lymph nodes from immunized mice were removed and isolated. LN cells (2.5×10^6 cells/cm^2) were plated in the wells of a 48-well tissue culture plate for stimulation with GA.
Expression of cytokine mRNA was quantitatively analyzed 4 and 6 hours after using a Real-Time PCR system (7500, Applied Biosystems).

TNF-α mRNA in LN cells = assay: TNF-α mRNA by real-time PCR in LN cells of GA-immunized CD-1, BALB/cByJ, SJL/J mice (Example III); details: 6 hours
Procedure: (§1) On Day 0, mice were immunized with 250 μg GA (GMA, Mylan Pharmaceuticals, Inc.) and CFA. The GA solution (20 mg/mL) was diluted with Dulbecco's Phosphate-Buffered Saline to 5 mg/mL. The dosing formulation consisted of equal volumes of the diluted GA solution (5 mg/mL) and CFA solution, mixed until well-emulsified. Animals were weighed and allocated to groups. Animals were dosed by injection into four footpads. The injection volume per animal was 0.1 mL (about 10 μL into each front footpad, and 40 μL into each hind footpad).
(§2) Immunized animals were euthanized by cervical dislocation on Day 10 post-immunization. Lymph node cells were isolated from animals and treated with Myelin Basic Protein (MBP, a negative control), Concanavalin A (ConA, a positive control) or GA as shown in Table 16. Lymph nodes in the axillary and popliteal regions were removed aseptically in a purifier clean bench. […] The LN were then washed 3 times with −5 mL of RPMI medium, and isolated by pressing the LN with a syringe plunger. […] The cell suspension was centrifuged at about 200×g for 10 minutes at about 4° C. and re-suspended in ice cold enriched DCCM-1 medium. Cells were seeded in 96-well tissue culture plates.
(§3) LN cells isolated from GA-immunized animals were stimulated with GA (GMA, Mylan Pharmaceuticals, Inc.) at concentrations as indicated in Tables 16 and 17. A positive control was prepared by treating LN cells with 2.5 μg/mL concavalin A (ConA, a non-specific T cell stimulant). Myelin basic protein (MBP, 10 μg/mL) and enriched DCCM-1 medium served as negative controls. The cells from all groups each were stimulated with the same GA lot. Each reaction was set up in triplicate.
(§4) After incubation at about 37° C. in a humidified CO2 incubator for 6 hours, the cells were lysed for total RNA isolation. Total RNA was isolated from treated LN cells using SV 96 Total RNA Isolation System according to the manufacturer's protocol (Promega, Cat. #Z3500). Cells were washed once with Phosphate Buffered Saline (PBS) and lysed in RNA lysis buffer. The lysate was transferred to wells of the SV 96 binding plate. Samples were washed with RNA wash solution and treated with DNase. Total RNA was eluted with nuclease-free water from the binding plate.
(§5) After the reverse transcriptase reaction was completed, cDNA samples were used directly for real-time PCR to measure the response biomarker mRNA levels produced by the stimulated cells. […] All probes for target genes contained FAM dye, and probes for the internal control contained VIC®/MGB dye. Samples will be prepared and run in 96-well plates using a Real-Time PCR system (7500, Life Technologies). This system allows direct detection of PCR-product formation by measuring the increase in fluorescent emission continuously during the PCR reaction. A relative quantitation method was used to analyze changes in mouse IL-2, IL-4, IL-5, IL-10, IL-13, IFN-γ and TNF-α expression in GA-treated samples relative to the untreated control (enriched DCCM-1 treated) samples. The Real-Time PCR program was:
(§6) The levels of mouse cytokine amplicons (IL-2, IL-4, IL-5, IL-10, IL-13, mIFN-γ and TNF-α) were normalized to internal probe levels (GAPDH) from the same samples. The following equations were used to calculate the relative increase in response to GA stimulation compared to the control sample: ΔCT=CT_target−CT_reference ΔΔCT=−ΔCT_Treated−CT_VC

IFN-γ mRNA in LN cells = assay: IFN-γ mRNA by real-time PCR in LN cells of GA-immunized CD-1, BALB/cByJ, SJL/J mice (Example III); details: 6 hours
Procedure: as §1, §2, §3, §4, §5, §6

[2] = Experiment 1, GA-immunized (SJL/J×BALB/C)F1, 2 hour post stimulation, GA 10, ConA 2.5 μg/mL
[3] = Experiment 1, GA-immunized (SJL/J×BALB/C)F1, 4 hour post stimulation, GA 10, MBP 10, ConA 2.5 μg/mL
[4] = Experiment 1, GA-immunized (SJL/J×BALB/C)F1, 6 hour post stimulation, GA 10, MBP 10, ConA 2.5 μg/mL
[5] = Experiment 1, GA-immunized (SJL/J×BALB/C)F1, 24 hour post stimulation, GA 10, MBP 10, ConA 2.5 μg/mL
[6] = Group 1B (GA + CFA), 4 hours post-stimulation, GA 10, MBP 10, ConA 2.5 μg/mL, reference GAPDH
[7] = Group 1B (GA + CFA), 6 hours post-stimulation, GA 10, MBP 10, ConA 2.5 μg/mL, reference GAPDH
[8] = Group 2B (Mannitol + CFA), 4 hours post-stimulation, GA 10, MBP 10, ConA 2.5 μg/mL, reference GAPDH
[9] = Group 2B (Mannitol + CFA), 6 hours post-stimulation, GA 10, MBP 10, ConA 2.5 μg/mL, reference GAPDH
[10] = Group 1C: CD-1, GA-immunized, stimulation 2.5 μg/mL
[11] = Group 2C: BALB/cByJ, GA-immunized, stimulation 2.5 μg/mL
[12] = Group 3C: SJL/J, GA-immunized, stimulation 2.5 μg/mL
[13] = Group 1C: CD-1, GA-immunized, stimulation 0.3 μg/mL
[14] = Group 1C: CD-1, GA-immunized, stimulation 1 μg/mL
[15] = Group 1C: CD-1, GA-immunized, stimulation 3 μg/mL
[16] = Group 1C: CD-1, GA-immunized, stimulation 10 μg/mL
[17] = Group 2C: BALB/cByJ, GA-immunized, stimulation 0.3 μg/mL
[18] = Group 2C: BALB/cByJ, GA-immunized, stimulation 1 μg/mL
[19] = Group 2C: BALB/cByJ, GA-immunized, stimulation 3 μg/mL
[20] = Group 2C: BALB/cByJ, GA-immunized, stimulation 10 μg/mL
[21] = Group 3C: SJL/J, GA-immunized, stimulation 0.3 μg/mL
[22] = Group 3C: SJL/J, GA-immunized, stimulation 1 μg/mL
[23] = Group 3C: SJL/J, GA-immunized, stimulation 3 μg/mL
[24] = Group 3C: SJL/J, GA-immunized, stimulation 10 μg/mL

Molecule	mIFN-γ mRNA Level [1, 2]	mIFN-γ mRNA Level [1, 3]	mIFN-γ mRNA Level [1, 4]	mIFN-γ mRNA Level [1, 5]	mIFN-γ mRNA Level [1, 6]	mIFN-γ mRNA Level [1, 7]	mIFN-γ mRNA Level [1, 8]	mIFN-γ mRNA Level [1, 9]	TNF-α mRNA Expression (TNF-α mRNA in LN cells; [16])	TNF-α mRNA Expression (TNF-α mRNA in LN cells; [20])	TNF-α mRNA Expression (TNF-α mRNA in LN cells; [24])	IFN-γ mRNA Expression (IFN-γ mRNA in LN cells; [16])	IFN-γ mRNA Expression (IFN-γ mRNA in LN cells; [20])	IFN-γ mRNA Expression (IFN-γ mRNA in LN cells; [24])	also measured
Concanavalin A [ConA, reference compound]	40.9 fold change vs control	49.3 fold change vs control	18.2 fold change vs control	0.4 fold change vs control	29.5 fold change vs control	3.0 fold change vs control	15.5 fold change vs control	8.9 fold change vs control	–	–	–	–	–	–	TNF-α mRNA Expression (TNF-α mRNA in LN cells; [10]): 0.6 fold change vs control; TNF-α mRNA Expression (TNF-α mRNA in LN cells; [11]): 0.8 fold change vs control; TNF-α mRNA Expression (TNF-α mRNA in LN cells; [12]): 0.7 fold change vs control; IFN-γ mRNA Expression (IFN-γ mRNA in LN cells; [10]): 4.0 fold change vs control; IFN-γ mRNA Expression (IFN-γ mRNA in LN cells; [11]): 1.4 fold change vs control; IFN-γ mRNA Expression (IFN-γ mRNA in LN cells; [12]): 1.4 fold change vs control
L-glutamic acid polymer with L-alanine, L-lysine and L-tyrosine, acetate (salt) [GA]	1.3 fold change vs control	2.1 fold change vs control	4.6 fold change vs control	4.6 fold change vs control	7.0 fold change vs control	2.4 fold change vs control	1.2 fold change vs control	1.8 fold change vs control	1.1 fold change vs control	0.5 fold change vs control	0.8 fold change vs control	3.1 fold change vs control	2.2 fold change vs control	2.2 fold change vs control	TNF-α mRNA Expression (TNF-α mRNA in LN cells; [13]): 1.0 fold change vs control; TNF-α mRNA Expression (TNF-α mRNA in LN cells; [14]): 1.1 fold change vs control; TNF-α mRNA Expression (TNF-α mRNA in LN cells; [15]): 1.4 fold change vs control; TNF-α mRNA Expression (TNF-α mRNA in LN cells; [17]): 0.1 fold change vs control; TNF-α mRNA Expression (TNF-α mRNA in LN cells; [18]): 1.0 fold change vs control; TNF-α mRNA Expression (TNF-α mRNA in LN cells; [19]): 0.8 fold change vs control; TNF-α mRNA Expression (TNF-α mRNA in LN cells; [21]): 0.8 fold change vs control; TNF-α mRNA Expression (TNF-α mRNA in LN cells; [22]): 0.9 fold change vs control; TNF-α mRNA Expression (TNF-α mRNA in LN cells; [23]): 0.9 fold change vs control; IFN-γ mRNA Expression (IFN-γ mRNA in LN cells; [13]): 1.6 fold change vs control; IFN-γ mRNA Expression (IFN-γ mRNA in LN cells; [14]): 2.8 fold change vs control; IFN-γ mRNA Expression (IFN-γ mRNA in LN cells; [15]): 4.3 fold change vs control; IFN-γ mRNA Expression (IFN-γ mRNA in LN cells; [17]): 1.2 fold change vs control; IFN-γ mRNA Expression (IFN-γ mRNA in LN cells; [18]): 1.7 fold change vs control; IFN-γ mRNA Expression (IFN-γ mRNA in LN cells; [19]): 2.8 fold change vs control; IFN-γ mRNA Expression (IFN-γ mRNA in LN cells; [21]): 0.9 fold change vs control; IFN-γ mRNA Expression (IFN-γ mRNA in LN cells; [22]): 1.7 fold change vs control; IFN-γ mRNA Expression (IFN-γ mRNA in LN cells; [23]): 2.5 fold change vs control
MBP: myelin basic protein, a negative control (protein, UniProt P02686 1-304, looked up) Myelin basic protein: MGNHAGKRELNAEKASTNSETNRGESEKKRNLGELSRTTSEDNEVFGEADANQNNGTSSQDTAVTDSKRTADPKNAWQDAHPADPGSRPHLIRLFSRDAPGREDNTFKDRPSESDELQTIQEDSAATSESLDVMASQKRPSQRHGSKYLATASTMDHARHGFLPRHRDTGILDSIGRFFGGDRGAPKRGSGKDSHHPARTAHYGSLPQKSHGRTQDENPVVHFFKNIVTPRTPPPSQGKGRGLSLSRFSWGAEGQRPGFGYGGRASDYKSAHKGFKGVDAQGTLSKIFKLGGRDSRSGSPMARR	–	0.8 fold change vs control	0.2 fold change vs control	0.6 fold change vs control	0.9 fold change vs control	0.6 fold change vs control	1.1 fold change vs control	0.9 fold change vs control	0.8 fold change vs control	0.8 fold change vs control	0.3 fold change vs control	0.8 fold change vs control	0.2 fold change vs control	0.2 fold change vs control	–
